Reference: patent US20120264159A1, “SCREENING SYSTEM FOR MODULATORS OF HER2 MEDIATED TRANSCRIPTION AND HER2 MODULATORS IDENTIFED THEREBY” (BUCK INSTITUTE FOR AGE RESEARCH, priority 2001, published 2012)

Assays:
Format in all cases: cell-based, human
[1] = system: MCF/R06pGL-9 cells; assay: MTT cell viability assay on MCF/R06pGL-9 cells
Text: A luciferase reporter plasmid (designated RO6pGL-luc) was constructed by inserting the ˜500 bp SmaI-SmaI fragment of the human ErbB2 proximal promoter (12) into the pGL3Basic plasmid driving a luciferase reporter gene, as has been described (10). R06pGL-luc and a plasmid expressing neomycin phosphotransferase were co-transfected into the MCF-7 cells (ATCC) using Effectene (Qiagen). Cells were selected for stable expression of luciferase and neomycin (G418)-resistance. Single cell clones including MCF/R06pGL-9 were isolated and maintained in DME H-16 medium supplemented with 10% fetal bovine serum, 10 μg/ml insulin, 100 μg/ml penicillin/streptomycin, and 500 μg/ml G418. MTT cell viability and luciferase expression assays on the MCF/RO6pGL-9 sublime were performed after plating the subline into 96-well culture dishes at a density of 10^4 cells/well in 100 μL medium. After 24 hour cell plating, TSA from stock DMSO solution was diluted into 100 μL medium and then added into eight replicate wells at the indicated concentrations. […] The reaction was quantified by absorbance at 570 nm measured with a microplate reader (Molecular Devices) and the mean (±SD) optical density recorded after normalization by the vehicle treated controls. […]

[2] = system: ESX mRNA synthesis; assay: Nuclear run-off assay of ESX mRNA synthesis in SKBR3 cells; conditions: 5 hours, 0.4 μM TSA
Method: The conserved and singular DNase I hypersensitivity sites found in the proximal ErbB2 and ESX promoters (12,15) were assayed as before (12). Briefly, following culture treatment of cells, nuclei isolated by mild detergent lysis in a buffer containing 10 mM Hepes pH 7.9, 1.5 mM MgCl2, 10 mM KCl, 0.4% NP-40, 10% glycerol and 1 mM DTT. […]
Nuclear run-off experiments were performed on ErbB2 overexpressing breast cancer cells to confirm the conclusion drawn from TSA induced downregulation of luciferase expression in MCF/R06pGL-9 cells that HDAC inhibitors can suppress ErbB2 promoter activity and presumably also repress ErbB2 transcription. […] Slot blot hybridization stringency was adjusted so that no signal could be detected from those control slots containing the empty plasmid.

[3] = system: ESX transcript; assay: Northern blot of ESX transcript levels in SKBR3 cells; conditions: 24 hours TSA treatment
Method: (§1) The conserved and singular DNase I hypersensitivity sites found in the proximal ErbB2 and ESX promoters (12,15) were assayed as before (12). Briefly, following culture treatment of cells, nuclei isolated by mild detergent lysis in a buffer containing 10 mM Hepes pH 7.9, 1.5 mM MgCl2, 10 mM KCl, 0.4% NP-40, 10% glycerol and 1 mM DTT. Partial DNase I digestions were carried out by varying DNase I treatment times (0-15 minutes at 37( ) at a fixed DNase I concentrations (0.5-1.0 units per 10^6 nuclei). After purifying and restricting the DNA, it was electrophoresed through 0.7% agarose gels and blotted onto nylon membranes, UV-crosslinked and hybridized with randomly ^32P-labelled ErbB2 and ESX promoter probes, as similarly performed for routine Southern blotting. For Northern blotting, total (treated vs. control) cell RNA (10 μg/sample lane) was isolated using TRIzol (Invitrogen) according to manufacturer's specifications, electrophoresed into 1% agarose-formaldehyde gels and transferred onto membranes that were then hybridized with ^32P-labelled ErbB2 and ESX cDNA probes. For transcriptional run-off assays cell nuclei were first isolated from treated and control cells as described for the DNase I studies. […]

[4] = system: ErbB2 protein; assay: Western blot of 185 kDa ErbB2 protein levels in breast cancer cell lines
Method: as §1

[5] = system: RO6 HER2 promoter; assay: Basal promoter activity of MCF-7b stable RO6 populations; conditions: 10 nM, 24 hours, serum-free media, clone and polyclonal populations
Method: Parental cell lines MCF-7, and MDA-453 were transfected with the construct Ro6pGL (FIG. 2) in conjunction with pcMneo construct using lipid-based transfection (Effectene) at a ratio of 20:1 reporter:selectable marker (see, FIG. 4). Monoclonal and polyclonal populations were selected in 0.5 mg/ml G418 over 2 to 4 weeks.
Reporter activity was assayed as follows: From T-150 or T-75 culture flasks, about […] cells/well were plated into a 96 well plate format for high-throughput screening. 24 hours post plating a test agent e.g. a drug from a combinatorial library, was added to the wells at various concentrations. Certain wells were used as controls (e.g. PBS or DMSO vehicle only). Replicate wells ([…] per drug concentration) were run. 24 hours after addition of the test agent the cells were lysed, a luciferase reagent was added and activity in each well was read using a high-throughput screening plate reader (labsystems Fluoroskan). Parallel plates were run for cell viability using an MTT assay (Sigma).

Q: With `CC(/C=C/C(=O)NO)=C\[C@@H](C)C(=O)c1ccc(N(C)C)cc1` [TSA, trichostatin A] as the compound, how does the “cell viability (MTT assay)” value ([1]; 24 hours exposure, TSA concentrations up to 50 μM) read?
A: Its value is “little impact on cell viability”.

Q: What about the “cell viability (MTT assay)” value ([1]; dose <1 μM, within 24 h) of the same compound?
A: The value was “does not impair cell viability”.

Q: What about the “ESX mRNA synthesis” value [2] of the same compound?
A: The value was “preserves ESX mRNA synthesis”.

Q: And the “increase in ESX transcript levels” value [3]?
A: The value was 5 fold.

Q: And the “ectopic 185 kDa ErbB2 protein level” value ([4]; MCF/HER2-18 cells (CMV promoter), same TSA treatment conditions)?
A: Its value is “further stimulated”.

Q: And the “endogenous 185 kDa ErbB2 protein levels (normalized to α-tubulin)” value ([4]; SKBR3, MDA-453 and BT-474 cells, 24 hour, 0.4 μM TSA)?
A: Its value is “marked decline”.

Q: And the basal promoter activity [5]?
A: The basal promoter activity was “decreased basal promoter activity”.
